According to patent publication US20230009608A1, “GRK2 INHIBITORS AND USES THEREOF” (Cygnal Therapeutics, Inc., priority 2020, published 2023):

Experiments:
GRK2 [1] = target: T1, GRK2 (Homo sapiens, UniProt P25098); assay: GRK2 Inhibition Assay (TR-FRET, Example 7); format: biochemical; details: 1 nM GRK2, 7 μM ATP, TR-FRET; read-out: GRK2 IC50 (nM) (Example 7)
T1 construct: purchased SignalChem A14-10G
T1 sequence (P25098 1-689): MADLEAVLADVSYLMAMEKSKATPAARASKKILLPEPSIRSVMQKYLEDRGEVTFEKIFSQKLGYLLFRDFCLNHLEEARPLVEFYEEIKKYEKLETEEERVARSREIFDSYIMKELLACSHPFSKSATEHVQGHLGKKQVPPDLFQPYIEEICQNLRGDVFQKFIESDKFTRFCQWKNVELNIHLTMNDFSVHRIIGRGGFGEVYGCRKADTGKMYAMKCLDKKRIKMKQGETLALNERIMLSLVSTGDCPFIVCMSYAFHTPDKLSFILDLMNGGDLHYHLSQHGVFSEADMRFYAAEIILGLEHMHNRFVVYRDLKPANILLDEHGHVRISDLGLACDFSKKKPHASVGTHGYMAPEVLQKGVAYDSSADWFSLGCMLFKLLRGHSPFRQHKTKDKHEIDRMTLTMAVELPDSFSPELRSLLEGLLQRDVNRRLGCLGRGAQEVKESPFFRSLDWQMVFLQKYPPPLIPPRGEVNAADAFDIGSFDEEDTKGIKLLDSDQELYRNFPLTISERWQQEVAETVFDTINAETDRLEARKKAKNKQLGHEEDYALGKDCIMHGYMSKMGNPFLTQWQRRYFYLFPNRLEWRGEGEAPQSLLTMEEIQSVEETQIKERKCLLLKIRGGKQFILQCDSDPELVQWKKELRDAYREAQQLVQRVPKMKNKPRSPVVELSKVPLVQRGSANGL
How it was run: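 GRK2 at 1 nM preincubated 30 min with compound, then reacted 90 min at room temperature with 7 μM ATP and 50 nM ULight-TopoIIα in HEPES/MgCl2/DTT buffer. Phosphorylation detected by TR-FRET after Eu anti-TopoIIα and EDTA addition, 60 min.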

GRK2 [2] = target: T1, GRK2; assay: ADPGlo GRK2 Inhibition Assay (Example 8); format: biochemical; details: 7.5 nM GRK2, 10 μM ATP, ADP-Glo; read-out: GRK2 IC50 (nM) (Example 8)
How it was run: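 GRK2 (15 nM 2× enzyme solution) was preincubated 15 min with compound, then reacted 180 min at room temperature with 2× mix of 20 μM ATP plus GRKtide in HEPES pH 7.5, MgCl2, Tween-20, DTT. ADP was detected by ADP-Glo luminescence. Percent inhibition was normalised to enzyme and no-enzyme controls, with dose-response curves from threefold dilutions starting at 100 μM.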

[3] = test system: PAXF1657 control empty vector cell line; assay: 7-day proliferation assay, PAXF1657 control empty vector cell line (Example 9); format: cell-based; details: 168 h; 7-day compound treatment, CellTiter-Glo
How it was run: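 Viability by CellTiter-Glo after 7 days at 37° C., with compound-containing media replaced on day 3. Cells (500/well, RPMI1640 + 10% FBS) were PAXF1657 pairs: GRK2 overexpression vs empty vector, or CRISPR GRK2 knockout vs non-targeting clones; doses 30 μM-0.0002 μM final, 10 points, 0.3% DMSO.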

[4] = test system: PAXF1657 cell line stably overexpressing GRK2; assay: 7-day proliferation assay, PAXF1657 stably overexpressing GRK2 (Example 9); format: cell-based; details: for GI50: 168 h, 7-day compound treatment, CellTiter-Glo
Experimental: In order to identify compounds specific for GRK2, we generated two isogenic cell line pairs of the pancreatic cancer cell line PAXF1657, a pair of cells stably overexpressing GRK2 cDNA or the control empty vector and a cell line pair of PAXF1657 GRK2 knockout clonal cells versus non-targeting control clonal cells.
Proliferation Assay: Cellular anti-proliferative activity of compounds was assessed by using the pancreatic cancer cell line, PAXF1657, stably overexpressing GRK2 cDNA or the control empty vector, as well as the parental urinary bladder cancer cell line, 5637. In addition, we also took advantage of GRK2 knockout cell lines that were generated via CRISPR. Cell lines were seeded into tissue culture treated, white-walled, 96-well plates at a density of 500 cells/well in RPMI1640 media supplemented with 10% H.I. FBS and penicillin/streptomycin. Plates were incubated overnight at 37° C., 5% CO2 to allow cells to adhere to the wells. GRK2 inhibitors were added to the cells using a 10-point dilution series with a final concentration ranging from 30 μM-0.0002 μM in 0.3% DMSO. At the time of compound addition, a set of plates, that were not treated with compounds, were collected and cell viability was measured using CellTiter-Glo (Promega). CellTiter-Glo reagent was added to the designed plates and luminescence was measuring using a Biotek Synergy plate reader. The compound treated cells were incubated for 3 days at 37° C., 5% CO2. The media was then aspirated from each well and replaced with fresh media containing GRK2 inhibitors. The compound treated cells were then incubated for an additional 4 days at 37° C., 5% CO2. Cell viability was assessed and at end of the 7-day compound treatment by CellTiterGlo.

IC50 (GRK2 [1]) | IC50 (GRK2 [2]) | SMILES | GI50 [3] | GI50 [4] | Ratio GRK2 overexpressing cells/Empty vector cells ([4]; GI50 in GRK2 overexpressing PAXF1657 over GI50 in empty vector PAXF1657)
33 nM | 30 nM | CCOc1ccccc1CNC(=O)c1cccc(NCc2nnc(-c3ccncn3)n2C)c1 [compound 7] | 3.32 µM | 14.2 µM | 4.29
170 nM | 140 nM | Cn1c(CNc2cccc(C(=O)NC3(c4ccccc4)CCOCC3)c2)nnc1-c1ccncn1 [compound 8] | > 30 µM | 22.7 µM | –
